{"source": "patent US8097656B2", "about": "“Nitrogenated trans-stilbene analogs, method for the obtention and medical applications thereof” (Dominion Pharmakine S.L, priority 2005, dated 2012)", "key": {"MA375 cells [1]": {"system": "MA375 cells", "assay": "In vitro proliferation of MA375 cells in response to human HSC soluble factors", "format": "cell-based", "details": "for Increase in proliferation of A375 cells by MC-CEH (in words): 2.5 μM for 30 minutes before MC-CEH, 48 hours; for Proliferation of MA375 cells in response to human HSC soluble factors (No. cells per well): 2.5 μM, 30 min before HSC-conditioned media, 48 h, control 9000 ± 60, treatment alone 17500 ± 50", "protocol": "(§1) Culture of B16 (MB16) and A375 (MA375) melanoma cells. The MB 16 (B16F10 subline) murine tumor cells were cultured at 37° C., with 5% CO2 atmosphere in Dulbecco's modified Eagle's medium (DMEM)-HCO3 penicillin (100 U/ml), streptomycin (100 μg/ml), supplemented with 5% fetal bovine serum and adjusted to pH 7.4. The cells were maintained and subcultured according to the method described by Vidal-Vanaclocha et al. (1994) [Vidal-Vanaclocha, F., Amézaga, C., Asumendi, A., Kaplanski, G. & Dinarello, C. A. Interleukin-1 receptor blockade reduces the number and size of murine B16 melanoma hepatic metastases. Cancer Research, 1994, 54, 2667-2672]. The conditioned media were obtained from subconfluyent cultures maintained in absence of FBS for 24 hours.\n(§2) In vitro Melanoma cell proliferation test. The MB16 or MA375 cells are seeded (2500 cells/well/200 μl) in DMEM medium (Dulbecco's modified Eagle's medium) with 10% fetal bovine serum (FBS). Once adhered, they were washed to remove the FBS and fresh medium was added in the presence or absence of 2.5 μM of the compounds to be tested. In the experiments with MA375, the compound azaresveratrol (see Table 4) was used, and in the experiments with MB16 cells, the compounds azaresveratrol, JE1:2, JE2:1 or JE2:2 (see FIG. 3) were used. Thirty (30) minutes later, 10 ng/ml of IL-18 or HSC-conditioned media (murines in the case of B16 and human ones in the case of A375) were added to some wells, and the plates were incubated for 48 hours at 37° C. with 5% CO2 Upon completion of the incubation period, the cells were fixed with […] for 1 hours, were washed and were allowed to dry in the incubator at 50° C. for 30 minutes. In following, 100 μl/well of sulforhodamine 101 (0.4% p/v) was added and they were incubated at room temperature in the dark for 30 minutes. After washing, 200 μl/well of Tris base 10 mM pH 10.5 was added and the fluorescence was measured by means of a 530 nm, 620 nm emission excitation filter plate fluorescence reader. The number of cells was calculated by extrapolating said fluorescence data on a standard straight line previously obtained based on the fluorescence emitted in an increasing number of cells."}, "MB16 cells [2]": {"system": "MB16 cells", "assay": "In vitro proliferation of MB16 cells in response to murine HSC soluble factors", "format": "cell-based", "details": "for Increase in proliferation of B16 cells by MC-CEH (in words): 2.5 μM for 30 minutes before MC-CEH, 48 hours; for Proliferation of MB16 cells in response to murine HSC soluble factors (No. cells per well): 2.5 μM, 30 min before HSC-conditioned media, 48 h, control 16300 ± 300, treatment alone 21660 ± 500", "protocol": "as §1, §2"}, "human HSC": {"system": "human HSC", "assay": "Migration of human HSCs treated with MC-MA375 (modified Boyden chamber)", "format": "cell-based", "details": "for Increase in migration of HSC induced by MC-A375 (in words): 12.5 μM 30 min prior to MC-A375; for Migration of human HSC's treated with MC-MA375 (No. cells migrated per field): 12.5 μM, 30 min before MC-MA375, 4 h, control 10.0 ± 4, treatment alone 91.5 ± 19", "excerpt": "isolation of primary human cultures of hepatic sinusoidal endothelial (HSE) hepatic stellate cells (HSCs). The primary cultures of human HSE and HSC cells were obtained by non-tumoral hepatic tissue serial profusion with collagenase and pronase solutions, followed by Nycodenz gradient and seeded on 24-well plates (0.5×10^4 cells/cm^2) in DMEM. supplemented with 10% FBS.\nHuman HSC and HSE cell migration tests (see Table 3). Primary cultured hepatic endothelial cells (25×10^5) or hepatic stellate cells (2×10^4) were seeded in the upper compartment of modified Boyden chambers equipped with a polycarbonate filter of an 8 μm pore size. Some cells were incubated in the presence or absence of 12.5 μM of azaresveratrol, 30 minutes prior to adding conditioned tumor medium. Twenty-four (24) hours later (in the case of the endothelial cells) or 4 hours later (in the case of hepatic star cells) the number of cells having passed through the membrane was determined. The cells were fixed, were stained with hematoxylin eosine and were counted under the microscope (20×) in 5 fields per well."}, "MB16 cells [3]": {"system": "MB16 cells", "assay": "Hydrogen peroxide production from MB16 cells (DCFH-DA probe)", "format": "cell-based, murine", "details": "2.5 μM prior to IL-18; for H2O2 production by MB16 cells treated with IL-18: control 16.0 ± 3, IL-18 alone 34 ± 3.0", "protocol": "Determination of hydrogen peroxide production from HSE and MB16 cells. Primary cultures of HSE cells were treated with 10 μg/ml of the DCFH-DA fluorescent probe for 30 minutes at 37° C. and were washed to eliminate the excess fluorochromium. Afterward, fresh culture medium was added thereto in the presence or absence of 2.5 μM of the compounds JE1:2, JE2:1 or JE2:2 and the production of H202 over the course of time was determined (see FIG. 5). The hydrogen peroxide produced by the cells oxidizes the probe, converting it into a fluorescent molecule. Thus, the cell fluorescence produced by the accumulation of DCF made it possible to detect the intracellular production of hydrogen peroxide. In each cell well, it was possible to determine the relative fluorescence value (arbitrary units of fluorescence brightness) in relation to the quantity of hydrogen peroxide produced at different incubation times. In the experiments with MB16 cells, once the cells had been marked with the DCFH-DA probe, they were incubated for 300 minutes with 2.5 μM of the azaresveratrol or JE2:2 compounds, 10 ng/ml of IL-18 (FIG. 4) then having been added."}, "MA375 cells [4]": {"system": "MA375 cells", "assay": "MA375 cell adhesion to immobilized VCAM-1 substrates", "format": "cell-based, human", "details": "2.5 μM; for Adhesion of MA375 cells with H2O2 to immobilized VCAM-1 (% cells adhered): 10 μM H2O2, control 21.0 ± 4, H2O2 alone 41.3 ± 4.2; for Adhesion of MA375 cells treated with IL-18 to immobilized VCAM-1 (% cells adhered): control 21.0 ± 4, IL-18 alone 31.5 ± 3.2", "protocol": "MB16 and MA375 cell adhesion to immobilized VCAM-1 substrates. The MB16 and MA375 cell adhesion tests were conducted on immobilized VCAM-1 substrates (2 μg/ml of recombinant human VCAM-1, R&D Systems, Minneapolis, Minn.) on 96-well plates. To avoid non-specific attachment to the plastic, 0.5% BSA dissolved in PBS was added to the wells for 2 hours at ambient temperature prior to conducting the adhesion test. The melanoma cells were preincubated with 2.5 μM of the compounds to be tested (azaresveratrol, see Table 2; JE1:2, JE2:1 and JE2:2 see FIG. 2; JEM2:2-01 and JEM2:1-02 see FIG. 7; YEF02, YEF03, YEF07, YEF05B, YEF07B and YEF05H. see FIG. 9) for 30 minutes, to which 10 μM of hydrogen peroxide or 10 ng/ml of IL-18 were added, respectively for a further 24 hours. Afterward, the cells were washed and marked with the BCECF-AM fluorescent probe (carboxyfluorescein, 2′,7′-bis-(2-carboxy-ethyl)-5-(6)carboxyfluorescein aminoxymethyl ester). Thirty minutes later, a washing process was performed to remove the excess fluorochromium, the number of viable cells being calculated by means of the trypan blue exclusion test and (5×10^4 cells/well) being added to the 96-well plate. The co-culture plates were incubator-incubated at 37° C. for 1 hours. The percentage of cellular adhesion was calculated by measuring the fluorescence emitted by the adhered cells (obtained after washing the plate) with regard to the fluorescence emitted by the total number of cells added. The results in the figures are given in values related to the adhesion percentages of the untreated melanoma cells."}}, "data": [{"smiles": "Oc1ccc(C=Cc2cc(O)cc(O)c2)cc1", "note": "[resveratrol, reference compound]", "values": [{"measurement": "Increase in proliferation of A375 cells by MC-CEH (in words)", "setting": "MA375 cells [1]", "value": "prevented"}, {"measurement": "Proliferation of MA375 cells in response to human HSC soluble factors (No. cells per well)", "setting": "MA375 cells [1]", "value": "9050 ± 100", "unit": "No. cells per well"}, {"measurement": "Increase in proliferation of B16 cells by MC-CEH (in words)", "setting": "MB16 cells [2]", "value": "prevented"}, {"measurement": "Proliferation of MB16 cells in response to murine HSC soluble factors (No. cells per well)", "setting": "MB16 cells [2]", "value": "16800 ± 250", "unit": "No. cells per well"}, {"measurement": "Increase in migration of HSC induced by MC-A375 (in words)", "setting": "human HSC", "value": "abolished"}, {"measurement": "Migration of human HSC's treated with MC-MA375 (No. cells migrated per field)", "setting": "human HSC", "value": "6.5 ± 1.4 No. cells migrated per field"}, {"measurement": "Increase of H2O2 production of MB16 cells in response to IL-18 (in words)", "setting": "MB16 cells [3]", "value": "significantly (P<0.01) inhibited"}, {"measurement": "H2O2 production by MB16 cells treated with IL-18", "setting": "MB16 cells [3]", "value": "12 ± 1.0"}, {"measurement": "Adhesion of MA375 cells with H2O2 to immobilized VCAM-1 (% cells adhered)", "setting": "MA375 cells [4]", "value": "6.5 ± 0.5", "unit": "% cells adhered"}, {"measurement": "Adhesion of MA375 cells treated with IL-18 to immobilized VCAM-1 (% cells adhered)", "setting": "MA375 cells [4]", "value": "5.5 ± 0.4", "unit": "% cells adhered"}]}, {"smiles": "Oc1ccc(/N=C/c2cc(O)cc(O)c2)cc1", "note": "[azaresveratrol, 5-((E)-(4-Hydroxyphenylimino)methyl)benzene-1,3-diol]", "values": [{"measurement": "Increase in proliferation of A375 cells by MC-CEH (in words)", "setting": "MA375 cells [1]", "value": "prevented"}, {"measurement": "Proliferation of MA375 cells in response to human HSC soluble factors (No. cells per well)", "setting": "MA375 cells [1]", "value": "9250 ± 65", "unit": "No. cells per well"}, {"measurement": "Increase in proliferation of B16 cells by MC-CEH (in words)", "setting": "MB16 cells [2]", "value": "prevented"}, {"measurement": "Proliferation of MB16 cells in response to murine HSC soluble factors (No. cells per well)", "setting": "MB16 cells [2]", "value": "16750 ± 135", "unit": "No. cells per well"}, {"measurement": "Increase in migration of HSC induced by MC-A375 (in words)", "setting": "human HSC", "value": "abolished"}, {"measurement": "Migration of human HSC's treated with MC-MA375 (No. cells migrated per field)", "setting": "human HSC", "value": "6.0 ± 1.3 No. cells migrated per field"}, {"measurement": "Increase of H2O2 production of MB16 cells in response to IL-18 (in words)", "setting": "MB16 cells [3]", "value": "significantly (P<0.01) inhibited"}, {"measurement": "H2O2 production by MB16 cells treated with IL-18", "setting": "MB16 cells [3]", "value": "10 ± 2.0"}, {"measurement": "Adhesion of MA375 cells with H2O2 to immobilized VCAM-1 (% cells adhered)", "setting": "MA375 cells [4]", "value": "4.5 ± 0.3", "unit": "% cells adhered"}, {"measurement": "Adhesion of MA375 cells treated with IL-18 to immobilized VCAM-1 (% cells adhered)", "setting": "MA375 cells [4]", "value": "5.0 ± 0.3", "unit": "% cells adhered"}]}]}
